Assay results taken from ChEMBL document CHEMBL1201862, “PubChem BioAssay data set” (2004).
Activity calls are given as the source filed them.

Assays:
[1] = Late stage assay provider results from the probe development effort to identify selective inhibitors of heat shock protein 90 (HSP90): Absorbance-based cell proliferation assay in SKBR3 cells.; format: functional; conditions: SK-BR-3
[2] = Late stage assay provider results from the probe development effort to identify selective inhibitors of heat shock protein 90 (HSP90): Absorbance-based cell proliferation assay in MCF7 cells.; format: functional
Paired box protein Pax-8 = Paired box protein Pax-8 (Homo sapiens, UniProt Q06710); assay: inhibitors of PAX8-driven TPO luciferase reporter, dose response, RMG-I cells, cherry-pick (AID 687027); format: functional, cell-based;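 note: luciferase reporter driven by Pax8 target thyroperoxidase promoter measured by SteadyGlo luminescence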
Paired box protein Pax-8, sequence (Q06710 whole entry): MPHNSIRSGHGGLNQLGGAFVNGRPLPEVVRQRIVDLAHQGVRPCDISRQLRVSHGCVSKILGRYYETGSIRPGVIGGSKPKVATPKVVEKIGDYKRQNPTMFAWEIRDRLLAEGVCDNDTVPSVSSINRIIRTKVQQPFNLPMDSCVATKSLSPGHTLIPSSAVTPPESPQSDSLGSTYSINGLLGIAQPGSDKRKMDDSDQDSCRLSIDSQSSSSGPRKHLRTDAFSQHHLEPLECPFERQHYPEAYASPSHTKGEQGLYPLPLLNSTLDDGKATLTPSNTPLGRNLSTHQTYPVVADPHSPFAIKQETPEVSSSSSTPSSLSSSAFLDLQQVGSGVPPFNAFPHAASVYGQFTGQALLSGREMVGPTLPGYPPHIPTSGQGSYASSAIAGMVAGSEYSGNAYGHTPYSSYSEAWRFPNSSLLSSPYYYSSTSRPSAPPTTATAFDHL

[3] = inhibitors of CMV-promoter luciferase reporter, dose response, counter-screen for Pax8 inhibitor project, cell-based, HEK293, luminescence, dry powder (AID 743020); format: functional
[4] = IOSE-T80 ovarian epithelial cell cytotoxicity, dose response, cytotoxicity control for PAX8 inhibitor project, plate reader, dry powder samples (AID 743045); format: functional, cell-based
[5] = A2780 ovarian cancer cell cytotoxicity, dose response, cytotoxicity control, plate reader, dry powder samples (AID 743046); format: functional, cell-based
[6] = NIH:OVCAR-3 ovarian cancer cell cytotoxicity, dose response, PAX8 inhibitor project, plate reader, dry powder samples (AID 743044); format: functional, cell-based
[7] = cytotoxicity in OVCAR8 ovarian cancer cells, dose response, PAX8 project, cell-based, plate reader, dry powder samples (AID 743197); format: functional; conditions: OVCAR-8
[8] = target: T1, RNA-binding protein pos-1 (Caenorhabditis elegans, UniProt G5EF15); assay: inhibitors of POS-1/mex-3 RNA binding, dose response, biochemical, fluorescence polarization (AID 1964);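 note: purified POS-1 fused to maltose binding protein made in E. coli; potency of compounds blocking POS-1 binding to fluorescent RNA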
T1 sequence (G5EF15 whole entry): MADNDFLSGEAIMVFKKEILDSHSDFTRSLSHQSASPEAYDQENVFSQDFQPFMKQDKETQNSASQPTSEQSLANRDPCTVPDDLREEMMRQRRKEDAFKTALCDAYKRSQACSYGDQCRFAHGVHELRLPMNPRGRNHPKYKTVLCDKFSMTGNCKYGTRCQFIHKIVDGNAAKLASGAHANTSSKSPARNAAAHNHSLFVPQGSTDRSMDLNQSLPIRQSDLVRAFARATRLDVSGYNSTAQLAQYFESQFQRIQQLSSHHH

[9] = target: T2, Zinc finger protein mex-5 (Caenorhabditis elegans, UniProt Q9XUB2); assay: MEX-5/TCR-2 RNA interaction inhibitors, dose response, biochemical, C. elegans, fluorescence polarization (AID 1960)
T2 sequence (Q9XUB2 whole entry): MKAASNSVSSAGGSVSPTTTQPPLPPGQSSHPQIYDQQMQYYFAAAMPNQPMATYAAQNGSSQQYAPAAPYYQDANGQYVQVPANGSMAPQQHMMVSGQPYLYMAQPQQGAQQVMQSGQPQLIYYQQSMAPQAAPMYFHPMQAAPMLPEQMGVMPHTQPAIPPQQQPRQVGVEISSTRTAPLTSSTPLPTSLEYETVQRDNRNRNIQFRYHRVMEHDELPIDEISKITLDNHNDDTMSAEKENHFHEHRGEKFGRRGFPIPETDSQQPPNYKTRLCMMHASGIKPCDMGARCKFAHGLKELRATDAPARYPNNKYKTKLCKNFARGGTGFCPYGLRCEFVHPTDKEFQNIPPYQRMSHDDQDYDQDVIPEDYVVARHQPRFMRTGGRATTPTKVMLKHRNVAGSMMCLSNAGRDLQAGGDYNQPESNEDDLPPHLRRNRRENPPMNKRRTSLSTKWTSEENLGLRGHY

[10] = HepG2 cell cytotoxicity, dose response, cytotoxicity control, ATP luminescence, cherry-pick, set 6 (AID 1053125); format: functional, cell-based
Albumin = Albumin (Bos taurus, UniProt P02769); assay: Counterscreen for inhibitors of T-cell receptor (TCR)-CD3 interaction: Fluorescence-based biochemical high throughput dose response assay to identify inhibitors of T-cell receptor (TCR)-CD3 interaction using a TAMRA-labeled BSA probe.; format: functional
Albumin, sequence (P02769 whole entry): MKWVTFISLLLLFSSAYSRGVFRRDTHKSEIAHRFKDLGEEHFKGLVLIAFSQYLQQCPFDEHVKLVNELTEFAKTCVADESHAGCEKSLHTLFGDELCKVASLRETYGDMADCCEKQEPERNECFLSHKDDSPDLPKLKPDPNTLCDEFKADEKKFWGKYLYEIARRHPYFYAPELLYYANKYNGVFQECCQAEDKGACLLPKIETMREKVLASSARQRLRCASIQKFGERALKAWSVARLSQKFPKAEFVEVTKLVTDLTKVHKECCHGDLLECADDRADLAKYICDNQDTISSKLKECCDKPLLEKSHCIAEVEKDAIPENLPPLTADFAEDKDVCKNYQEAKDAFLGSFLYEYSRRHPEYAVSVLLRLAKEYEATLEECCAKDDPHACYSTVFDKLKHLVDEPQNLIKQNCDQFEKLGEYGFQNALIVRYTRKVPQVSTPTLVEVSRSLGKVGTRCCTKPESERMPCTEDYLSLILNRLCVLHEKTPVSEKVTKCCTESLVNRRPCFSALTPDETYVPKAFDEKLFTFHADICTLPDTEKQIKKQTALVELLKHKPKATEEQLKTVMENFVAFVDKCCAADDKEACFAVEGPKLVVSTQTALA

[11] = target: Fructose-bisphosphate aldolase (Mycobacterium tuberculosis, UniProt P9WQA3); assay: Fluorescence-based biochemical high throughput dose response assay for inhibitors of the fructose-bisphosphate aldolase (FBA) of M. tuberculosis.; format: functional
Fructose-bisphosphate aldolase, sequence (P9WQA3 whole entry): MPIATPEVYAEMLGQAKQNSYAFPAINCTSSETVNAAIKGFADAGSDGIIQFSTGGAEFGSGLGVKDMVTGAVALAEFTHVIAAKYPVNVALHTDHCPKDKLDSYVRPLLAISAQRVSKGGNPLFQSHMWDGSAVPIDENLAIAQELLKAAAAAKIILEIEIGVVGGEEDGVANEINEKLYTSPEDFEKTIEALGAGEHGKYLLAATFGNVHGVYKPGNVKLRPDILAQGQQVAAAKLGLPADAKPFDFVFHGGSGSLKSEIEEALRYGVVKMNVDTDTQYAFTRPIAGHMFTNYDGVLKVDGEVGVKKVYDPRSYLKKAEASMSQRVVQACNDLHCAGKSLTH

Cytochrome P450 2C19 = Cytochrome P450 2C19 (Homo sapiens, UniProt P33261); assay: Cytochrome panel assay with activity outcomes. Panel member name: p450-cyp2c19 Compounds with AC50 equal or less than 10 uM are considered active; format: functional; conditions: read-out: AC50
Cytochrome P450 2C19, sequence (P33261 whole entry): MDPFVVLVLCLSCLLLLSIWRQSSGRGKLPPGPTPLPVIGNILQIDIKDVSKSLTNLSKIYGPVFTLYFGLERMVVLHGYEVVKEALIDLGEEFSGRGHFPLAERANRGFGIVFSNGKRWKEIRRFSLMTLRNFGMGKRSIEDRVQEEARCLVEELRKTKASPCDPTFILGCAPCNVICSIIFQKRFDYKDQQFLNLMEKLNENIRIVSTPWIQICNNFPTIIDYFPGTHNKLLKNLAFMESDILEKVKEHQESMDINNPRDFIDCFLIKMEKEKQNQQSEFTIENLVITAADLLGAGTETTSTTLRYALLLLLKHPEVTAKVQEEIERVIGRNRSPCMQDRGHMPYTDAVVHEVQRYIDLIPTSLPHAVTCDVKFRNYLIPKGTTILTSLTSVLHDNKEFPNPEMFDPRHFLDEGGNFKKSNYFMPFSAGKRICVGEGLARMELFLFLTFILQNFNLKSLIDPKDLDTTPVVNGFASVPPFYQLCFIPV

Beta-galactosidase = Beta-galactosidase (Escherichia coli, UniProt Q8VNN2); assay: Dose response counterscreen for EBI2 assay utilizing the enzyme, b-galactosidase.; format: functional
Beta-galactosidase, sequence (Q8VNN2 whole entry): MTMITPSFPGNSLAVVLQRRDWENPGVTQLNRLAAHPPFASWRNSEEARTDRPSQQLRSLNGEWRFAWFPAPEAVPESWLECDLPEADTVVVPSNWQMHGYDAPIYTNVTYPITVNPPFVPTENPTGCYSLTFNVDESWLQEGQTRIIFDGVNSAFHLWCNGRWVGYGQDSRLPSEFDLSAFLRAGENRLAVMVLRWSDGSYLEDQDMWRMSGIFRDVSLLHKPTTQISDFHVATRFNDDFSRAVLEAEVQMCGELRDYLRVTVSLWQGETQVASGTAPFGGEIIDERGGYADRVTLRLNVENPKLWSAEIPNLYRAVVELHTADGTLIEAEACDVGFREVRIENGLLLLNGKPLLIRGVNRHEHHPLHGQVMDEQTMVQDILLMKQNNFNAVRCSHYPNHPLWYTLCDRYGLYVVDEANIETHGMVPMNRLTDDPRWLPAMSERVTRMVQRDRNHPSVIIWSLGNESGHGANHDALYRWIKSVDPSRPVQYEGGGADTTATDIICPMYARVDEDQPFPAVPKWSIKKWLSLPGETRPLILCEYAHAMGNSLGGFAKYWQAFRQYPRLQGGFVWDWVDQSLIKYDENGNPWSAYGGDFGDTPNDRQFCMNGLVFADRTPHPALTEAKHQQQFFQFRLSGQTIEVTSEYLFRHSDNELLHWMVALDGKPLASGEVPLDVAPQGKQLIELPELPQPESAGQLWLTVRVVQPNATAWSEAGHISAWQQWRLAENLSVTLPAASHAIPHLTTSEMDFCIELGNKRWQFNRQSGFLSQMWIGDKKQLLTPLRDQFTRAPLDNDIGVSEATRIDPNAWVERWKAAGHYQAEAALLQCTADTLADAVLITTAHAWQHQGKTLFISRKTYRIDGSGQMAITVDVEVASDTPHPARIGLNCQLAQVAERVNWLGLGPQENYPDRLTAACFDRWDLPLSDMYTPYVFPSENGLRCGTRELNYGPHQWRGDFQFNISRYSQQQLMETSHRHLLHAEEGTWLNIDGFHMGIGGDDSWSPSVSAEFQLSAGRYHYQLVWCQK

Cytochrome P450 1A2 = target: T3, Cytochrome P450 1A2 (Homo sapiens, UniProt P05177);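 note: PubChem cytochrome P450 panel assay, CYP1A2 panel member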
T3 sequence (P05177 whole entry): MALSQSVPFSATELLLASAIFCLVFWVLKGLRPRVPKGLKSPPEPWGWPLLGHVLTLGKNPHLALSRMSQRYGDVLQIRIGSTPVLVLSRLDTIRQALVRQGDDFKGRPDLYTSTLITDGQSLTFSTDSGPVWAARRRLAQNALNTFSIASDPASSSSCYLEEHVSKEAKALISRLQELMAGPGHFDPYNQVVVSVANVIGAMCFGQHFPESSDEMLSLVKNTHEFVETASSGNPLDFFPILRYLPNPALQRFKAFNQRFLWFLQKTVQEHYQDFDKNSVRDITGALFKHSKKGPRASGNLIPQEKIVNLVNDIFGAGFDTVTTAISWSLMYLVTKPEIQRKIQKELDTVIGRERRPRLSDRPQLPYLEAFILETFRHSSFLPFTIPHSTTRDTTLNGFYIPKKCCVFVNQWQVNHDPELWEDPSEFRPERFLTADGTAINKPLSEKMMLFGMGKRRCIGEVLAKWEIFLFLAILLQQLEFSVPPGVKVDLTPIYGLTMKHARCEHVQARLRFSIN

INS1 = assay: beta cell apoptosis inhibitors, cytokine rescue, dose response, luminescence, retest (AID 449756); format: functional, cell-based; conditions: Rattus norvegicus;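 note: cell death triggered by IL-1 beta plus TNF-alpha plus IFN-gamma mixture; protective hits raise ATP signal compared with cytokine alone wells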
[12] = Shn3 3'UTR reporter inhibitors, dose response, cell-based, Clone20 osteoblasts, firefly luciferase, cherry-picked (AID 624132); format: functional;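 note: firefly luciferase luminescence from reporter carrying the Shn3 3'UTR in osteoblasts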
[13] = HepG2 cell cytotoxicity, dose response, cytotoxicity control for Shn3 inhibitor project, CellTiter-Glo, cherry-picked (AID 624134); format: functional, cell-based
[14] = control 3'UTR Renilla luciferase suppression, dose response, counter-screen for Shn3 inhibitor project, cell-based, Clone20-Shn3RL, cherry-picked (AID 624133); format: functional
[15] = target: Disintegrin and metalloproteinase domain-containing protein 17 (Homo sapiens, UniProt P78536); assay: exosite inhibitors of ADAM17, dose response, biochemical (AID 743260)
Disintegrin and metalloproteinase domain-containing protein 17, sequence (P78536 whole entry, the tested form may be a part): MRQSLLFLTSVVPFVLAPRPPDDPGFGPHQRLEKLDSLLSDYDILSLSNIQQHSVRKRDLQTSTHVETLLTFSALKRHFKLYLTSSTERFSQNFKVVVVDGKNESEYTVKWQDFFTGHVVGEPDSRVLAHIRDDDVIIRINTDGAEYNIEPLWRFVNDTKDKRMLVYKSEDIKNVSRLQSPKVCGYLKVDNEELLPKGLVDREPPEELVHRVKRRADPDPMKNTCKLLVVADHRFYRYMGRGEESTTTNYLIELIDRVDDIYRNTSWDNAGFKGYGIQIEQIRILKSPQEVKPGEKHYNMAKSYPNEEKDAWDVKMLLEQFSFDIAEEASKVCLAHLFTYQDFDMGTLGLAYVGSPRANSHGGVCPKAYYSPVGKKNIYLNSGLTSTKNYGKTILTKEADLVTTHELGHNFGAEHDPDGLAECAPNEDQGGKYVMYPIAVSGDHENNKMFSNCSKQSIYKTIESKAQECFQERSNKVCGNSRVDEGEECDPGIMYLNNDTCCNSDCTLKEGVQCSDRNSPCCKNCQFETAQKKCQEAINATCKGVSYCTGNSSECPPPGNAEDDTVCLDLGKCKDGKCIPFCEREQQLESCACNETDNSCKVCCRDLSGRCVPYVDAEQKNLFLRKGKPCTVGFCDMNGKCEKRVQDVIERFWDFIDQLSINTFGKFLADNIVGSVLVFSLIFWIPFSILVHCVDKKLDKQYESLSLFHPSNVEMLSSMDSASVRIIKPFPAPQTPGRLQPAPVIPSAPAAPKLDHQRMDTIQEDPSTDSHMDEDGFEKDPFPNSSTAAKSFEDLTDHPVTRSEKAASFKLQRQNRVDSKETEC

[16] = ADAM10 protease inhibitors, dose response, selectivity assay for ADAM17 exosite inhibitor project, biochemical, FRET peptide substrate, recombinant human ADAM10 (AID 743259);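 note: ADAM10 enzyme cleaving a FRET peptide substrate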
[17] = A549 cell cytotoxicity, dose response, cytotoxicity control, plate reader, cherry-pick, antagonist series (AID 743412); format: functional, cell-based
[18] = LGR2 antagonists, dose response, cell-based, HEK293, CRE-luciferase reporter, cherry pick (AID 743342); format: functional
[19] = MC4R antagonists, dose response, counter-screen for LGR2 antagonist project, cell-based, plate reader, cherry pick (AID 743444); format: functional;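 note: transfected HEK 293 cells stimulated with alpha-MSH peptide; potency of inhibitors of the alpha-MSH evoked signal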

N#Cc1cc2ccc(OCCCCC(=O)O)cc2oc1=O
IC50 [1]: > 100 µM (inactive)
IC50 [2]: > 100 µM (inactive)

C[C@@H]1CCCCO[C@H](CN(C)Cc2ccc(Cl)c(Cl)c2)[C@@H](C)CN([C@@H](C)CO)C(=O)c2cc(NC(=O)Nc3ccccc3)ccc2O1
AC50 (Paired box protein Pax-8): 4.29 µM (active)
AC50 [3]: 47.9 µM (active)

O=C(Nc1ccccc1)N1CCCCN2[C@@H](CO)[C@@H](c3ccc(C#Cc4ccccc4)cc3)[C@@H]2C1
AC50 [4]: 19.3 µM (active)
AC50 [5]: 13.7 µM (active)
AC50 [6]: 7.13 µM (active)
AC50 [7]: 17.5 µM (active)

N#CC1=C(N)OC2=C(C(=O)CCC2)C1c1cc2c(cc1Br)OCO2 (stereo not given)
EC50 [8]: > 300 µM (not active)
EC50 [9]: > 300 µM (not active)
AC50 [10]: > 52 µM (inactive)

CC(C)(C)c1ccc(C(=O)NCC(=O)NNC(=O)c2ccccc2O)cc1
IC50 (Albumin): > 94.1 µM (inactive)

CCOC(=O)N1CCc2cc(OC)c(OC)c3c2c1cc1cc(OC)c(OC)cc13
IC50 [11]: 2.7 µM (active)

CCOC(=O)N1CCN(C(=O)c2cc(-c3ccc(F)cc3)[nH]c2C)CC1
AC50 (Cytochrome P450 2C19): 10 µM (inconclusive)
IC50 (Beta-galactosidase): > 80 µM (inactive)
AC50 (Cytochrome P450 1A2): 20 µM (inconclusive)

Cc1cccc(Oc2cc(NC(=O)c3ccccc3)cc([N+](=O)[O-])c2)c1
AC50 (INS1): 3.57 µM (active)
AC50 [12]: 3.09 µM (active)
AC50 [13]: 45.5 µM (active)
AC50 [14]: 13.6 µM (active)
IC50 [15]: > 69.5 µM (inactive)
IC50 [16]: > 69.5 µM (inactive)

C[C@H]1CCCCO[C@@H](CN(C)C(=O)Nc2ccc(F)cc2)[C@@H](C)CN([C@@H](C)CO)C(=O)c2cc(NC(=O)C3CCCCC3)ccc2O1
AC50 [17]: 44.2 µM (active)
AC50 [18]: 3.88 µM (active)
AC50 [19]: 66 µM (active)
